13 compounds from ChEMBL document CHEMBL1135375, “Synthesis and biological activities of YkFA analogues: effects of position 4 substitutions and altered ring size on in vitro opioid activity” (Bioorg Med Chem Lett, 2002) can be followed below.

The term IC50 denotes the concentration that gives 50% inhibition.

The target of one assay is Mu-type opioid receptor (Cavia porcellus, UniProt P97266). Put plainly: Concentration required for 50% inhibition of electrically induced contraction of the guinea pig ileum mediated through mu opioid receptor. Type of assay: functional, tissue-based.
Mu-type opioid receptor, sequence (P97266 whole entry): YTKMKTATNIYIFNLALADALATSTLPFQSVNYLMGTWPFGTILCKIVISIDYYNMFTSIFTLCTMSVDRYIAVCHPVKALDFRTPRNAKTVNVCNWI
The target of assay [1] is Delta-type opioid receptor (Mus musculus, UniProt P32300). The assay can be described thus: Concentration required for 50% inhibition of electrically induced contraction of the mouse vas deferens mediated through delta opioid receptor. The format is functional.
Delta-type opioid receptor, sequence (P32300 whole entry): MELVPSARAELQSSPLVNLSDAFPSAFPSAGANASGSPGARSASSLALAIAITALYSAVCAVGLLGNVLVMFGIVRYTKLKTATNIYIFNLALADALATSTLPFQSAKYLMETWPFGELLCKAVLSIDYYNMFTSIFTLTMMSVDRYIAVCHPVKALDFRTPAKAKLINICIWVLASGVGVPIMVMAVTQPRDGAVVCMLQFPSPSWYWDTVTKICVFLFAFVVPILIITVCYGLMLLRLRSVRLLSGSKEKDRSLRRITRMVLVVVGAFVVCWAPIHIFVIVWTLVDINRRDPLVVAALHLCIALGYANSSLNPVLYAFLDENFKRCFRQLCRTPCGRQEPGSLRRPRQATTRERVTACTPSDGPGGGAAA
For assay [2], the system named is Opioid receptors; mu & delta. The assay can be described thus: Selectivity ratio against mu opioid receptor to that of delta opioid receptor was determined.

As for `CC[C@H](C)[C@@H]1NC(=O)[C@H](Cc2ccccc2)NC(=O)[C@@H](CCCCN)N(C(=O)[C@@H](N)Cc2ccc(O)cc2)C1=O`, the half-inhibitory concentration (IC50) against Mu-type opioid receptor stood at 1.1 nM; in assay [1], 6.3 nM.
The corresponding values for `CC(C)[C@@H]1NC(=O)[C@H](Cc2ccccc2)NC(=O)[C@@H](CCCCN)N(C(=O)[C@@H](N)Cc2ccc(O)cc2)C1=O` are 0.2 nM and 0.44 nM.
Take `CC(C)[C@H]1NC(=O)[C@H](Cc2ccccc2)NC(=O)[C@H](CCCCN)N(C(=O)[C@@H](N)Cc2ccc(O)cc2)C1=O`: the Ratio in assay [2] turned out to be 2.2.
On to `NCCCC[C@@H]1C(=O)N[C@@H](Cc2ccccc2)C(=O)N[C@@H](CC(=O)O)C(=O)N1C(=O)[C@@H](N)Cc1ccc(O)cc1`, for which the IC50 at Mu-type opioid receptor was 78.8 nM; in assay [1] it was 73.8 nM.
The corresponding values for `C[C@@H]1NC(=O)[C@H](Cc2ccccc2)NC(=O)[C@@H](CCN)N(C(=O)[C@@H](N)Cc2ccc(O)cc2)C1=O` are 3.5 nM and 40 nM.
In the case of `C[C@H]1NC[C@H](Cc2ccccc2)NC(=O)[C@H](CCN)N(C(=O)[C@@H](N)Cc2ccc(O)cc2)C1=O`, in assay [2], the Ratio came to 12. Further, the half-maximal inhibitory concentration (IC50) was found to be 21.4 nM on Mu-type opioid receptor and 252 nM in assay [1].
Take `CC(C)C[C@@H]1NC(=O)[C@H](Cc2ccccc2)NC(=O)[C@@H](CCCCN)N(C(=O)[C@@H](N)Cc2ccc(O)cc2)C1=O`: the values for the IC50 (against Mu-type opioid receptor; in assay [1]) were 1.4 nM and 6.2 nM, respectively.
In the case of `C[C@H]1NC(=O)[C@H](Cc2ccccc2)NC(=O)[C@H](CCCCN)N(C(=O)[C@@H](N)Cc2ccc(O)cc2)C1=O`, the Ratio in assay [2] came to 4.9.
Consider `C[C@H]1NC(=O)[C@H](Cc2ccccc2)NC(=O)[C@H](CCN)N(C(=O)[C@@H](N)Cc2ccc(O)cc2)C1=O`, for which the Ratio in assay [2] amounted to 12.
For the compound `CC(C)C[C@H]1NC(=O)[C@H](Cc2ccccc2)NC(=O)[C@H](CCCCN)N(C(=O)[C@@H](N)Cc2ccc(O)cc2)C1=O`, in assay [2], the Ratio came to 4.5.
For the compound `C[C@@H]1NC(=O)[C@H](Cc2ccccc2)NC(=O)[C@@H](CCCCN)N(C(=O)[C@@H](N)Cc2ccc(O)cc2)C1=O`, the results for the half-maximal inhibitory concentration (IC50) (on Mu-type opioid receptor; in assay [1]) were 0.11 nM and 0.54 nM, respectively.
On to `NCCCC[C@H]1C(=O)N[C@@H](Cc2ccccc2)C(=O)N[C@H](CC(=O)O)C(=O)N1C(=O)[C@@H](N)Cc1ccc(O)cc1`, for which the Ratio in assay [2] is 0.94.
As for `CC[C@@H](C)[C@H]1NC(=O)[C@H](Cc2ccccc2)NC(=O)[C@H](CCCCN)N(C(=O)[C@@H](N)Cc2ccc(O)cc2)C1=O`, the Ratio in assay [2] was found to be 6.
